Test results published in PubChem BioAssay AID651630 (Sanford-Burnham Center for Chemical Genomics, 2012).
The source made the active and inactive calls.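 The calls were made as follows: active = lipid-stain IC50 at or below a set limit, with nuclear-stain toxicity IC50 at least five times higher; inactive = the rest.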

Tests used:
DAPI = experiment: TAG lipid buildup inhibition with viability readout – cell-based, panel, Nile Red and DAPI fluorescence, H9c2, dose response (AID 651630); settings: H9c2 cells, DAPI nuclear fluorescence (cytotoxicity counter-readout), oleic acid;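 also: cells exposed to compound overnight before fixation and staining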
TAG = experiment: as above; settings: H9c2 cells, Nile Red TAG fluorescence, oleic acid

`C#CCN(C[C@@H]1[C@@H](OC(=O)NCc2ccco2)[C@@H](OC(=O)NCc2ccco2)CN(C(=O)OC(C)C)N1C(=O)OC(C)C)S(=O)(=O)c1ccc(C)cc1` was tested, and the IC50 cytotoxicity (DAPI nuclear signal decrease) (DAPI; run 1) was 16.5 µM, the IC50 cytotoxicity (DAPI nuclear signal decrease) (DAPI; run 2) was greater than 25 µM and the IC50 (TAG; mean of runs) was 15.1 µM (inactive). It also gave an IC50 (TAG; run 1) of 16.2 µM and an IC50 (TAG; run 2) of 14 µM.
With `CCCC[C@H](CN[C@@H](CNC)[C@H](C)CC)NCCC12CCC(CC1)C2` the IC50 cytotoxicity (DAPI nuclear signal decrease) (DAPI; run 1) was 17.8 µM, the IC50 cytotoxicity (DAPI nuclear signal decrease) (DAPI; run 2) was greater than 25 µM and the IC50 (TAG; mean of runs) was > 25 µM (inactive). It also gave an IC50 (TAG; run 1) greater than 25 µM and an IC50 (TAG; run 2) greater than 25 µM.
In the case of `C[C@@H]1CN([C@H](C)CO)C(=O)c2c(c3ccccc3n2C)-c2ccccc2CO[C@H]1CN(C)Cc1ccc(-c2ccccc2)cc1`, the IC50 cytotoxicity (DAPI nuclear signal decrease) (DAPI; mean of runs) is reported as > 25 µM (inactive), the IC50 cytotoxicity (DAPI nuclear signal decrease) (DAPI; run 1) is reported as greater than 25 µM and the IC50 cytotoxicity (DAPI nuclear signal decrease) (DAPI; run 2) is reported as greater than 25 µM. It also gave an IC50 (TAG; mean of runs) of 14.9 µM, an IC50 (TAG; run 1) of 9.62 µM and an IC50 (TAG; run 2) of 20.1 µM.
In the case of `COc1ccc(NS(=O)(=O)c2cc(C)ccc2NC(=O)c2cc(C)oc2C)cc1`, the IC50 cytotoxicity (DAPI nuclear signal decrease) (DAPI; mean of runs) is reported as > 25 µM (inactive), the IC50 cytotoxicity (DAPI nuclear signal decrease) (DAPI; run 1) is reported as greater than 25 µM and the IC50 cytotoxicity (DAPI nuclear signal decrease) (DAPI; run 2) is reported as greater than 25 µM. For the same compound, the IC50 (TAG; mean of runs) was 8.59 µM, the IC50 (TAG; run 1) was 9.83 µM and the IC50 (TAG; run 2) was 7.35 µM.
`CN(C)C(=S)N=c1ssc(=S)n1Cc1ccco1` was tested, and the IC50 cytotoxicity (DAPI nuclear signal decrease) (DAPI; mean of runs) was > 25 µM (inactive), the IC50 cytotoxicity (DAPI nuclear signal decrease) (DAPI; run 1) was greater than 25 µM and the IC50 cytotoxicity (DAPI nuclear signal decrease) (DAPI; run 2) was greater than 25 µM. For the same compound, the IC50 (TAG; mean of runs) was > 25 µM (inactive), the IC50 (TAG; run 1) was greater than 25 µM and the IC50 (TAG; run 2) was greater than 25 µM.
With `Cc1cccc2cc(C#N)c(SCC(=O)NNC(=O)Cc3ccccc3)nc12` the IC50 cytotoxicity (DAPI nuclear signal decrease) (DAPI; mean of runs) was > 25 µM (inactive), the IC50 cytotoxicity (DAPI nuclear signal decrease) (DAPI; run 1) was greater than 25 µM and the IC50 cytotoxicity (DAPI nuclear signal decrease) (DAPI; run 2) was greater than 25 µM. The IC50 (TAG; mean of runs) was > 25 µM (inactive), the IC50 (TAG; run 1) was greater than 25 µM and the IC50 (TAG; run 2) was greater than 25 µM.
With `C=CCC[C@@H](Cc1ccc(F)cc1)C(=O)OC[C@H](Cc1c[nH]c2ccccc12)NC(=O)[C@@H](CC=C)CC(=O)N(CCO)Cc1ccccc1` the IC50 cytotoxicity (DAPI nuclear signal decrease) (DAPI; mean of runs) was > 25 µM (inactive), the IC50 cytotoxicity (DAPI nuclear signal decrease) (DAPI; run 1) was greater than 25 µM and the IC50 cytotoxicity (DAPI nuclear signal decrease) (DAPI; run 2) was greater than 25 µM. The IC50 (TAG; mean of runs) was 13.1 µM, the IC50 (TAG; run 1) was 10.7 µM and the IC50 (TAG; run 2) was 15.4 µM.
`O=C(Cc1coc2ccc3ccccc3c12)Nc1nccs1` was tested, and the IC50 cytotoxicity (DAPI nuclear signal decrease) (DAPI; mean of runs) was > 25 µM (inactive), the IC50 cytotoxicity (DAPI nuclear signal decrease) (DAPI; run 1) was greater than 25 µM and the IC50 cytotoxicity (DAPI nuclear signal decrease) (DAPI; run 2) was greater than 25 µM. For the same compound, the IC50 (TAG; mean of runs) was > 25 µM (inactive), the IC50 (TAG; run 1) was greater than 25 µM and the IC50 (TAG; run 2) was greater than 25 µM.
`COc1ccc(NS(=O)(=O)c2cccc(C(=O)N/N=C/c3cn(-c4ccccc4)nc3-c3ccccc3)c2)cc1` was tested, and the IC50 cytotoxicity (DAPI nuclear signal decrease) (DAPI; mean of runs) was > 25 µM (inactive), the IC50 cytotoxicity (DAPI nuclear signal decrease) (DAPI; run 1) was greater than 25 µM and the IC50 cytotoxicity (DAPI nuclear signal decrease) (DAPI; run 2) was greater than 25 µM. For the same compound, the IC50 (TAG; mean of runs) was 8.79 µM, the IC50 (TAG; run 1) was 7.63 µM and the IC50 (TAG; run 2) was 9.96 µM.
`Cc1occc1C(=O)NC(C)CCc1ccccc1` (configuration not stated) was tested, and the IC50 cytotoxicity (DAPI nuclear signal decrease) (DAPI; mean of runs) was > 25 µM (inactive), the IC50 cytotoxicity (DAPI nuclear signal decrease) (DAPI; run 1) was greater than 25 µM and the IC50 cytotoxicity (DAPI nuclear signal decrease) (DAPI; run 2) was greater than 25 µM. For the same compound, the IC50 (TAG; mean of runs) was > 25 µM (inactive), the IC50 (TAG; run 1) was greater than 25 µM and the IC50 (TAG; run 2) was greater than 25 µM.
In the case of `COc1cccc(-c2cc(C(=O)Nc3ccc(N(C)C(C)=O)cc3)c3cc(Br)ccc3n2)c1`, the IC50 cytotoxicity (DAPI nuclear signal decrease) (DAPI; mean of runs) is reported as > 25 µM (inactive), the IC50 cytotoxicity (DAPI nuclear signal decrease) (DAPI; run 1) is reported as greater than 25 µM and the IC50 cytotoxicity (DAPI nuclear signal decrease) (DAPI; run 2) is reported as greater than 25 µM. It also gave an IC50 (TAG; mean of runs) of 12.3 µM, an IC50 (TAG; run 1) of 11.7 µM and an IC50 (TAG; run 2) of 12.9 µM.
With `Cc1cccc(-c2ccc3[nH]c4c(c3c2)CCN2C[C@@H]([C@H](C)OC(=O)Nc3ccccc3C)[C@@H](N(C)C(=O)Nc3ccccc3C)C[C@@H]42)c1` the IC50 cytotoxicity (DAPI nuclear signal decrease) (DAPI; mean of runs) was > 25 µM (inactive), the IC50 cytotoxicity (DAPI nuclear signal decrease) (DAPI; run 1) was greater than 25 µM and the IC50 cytotoxicity (DAPI nuclear signal decrease) (DAPI; run 2) was greater than 25 µM. For the same compound, the IC50 (TAG; mean of runs) was 15.6 µM (inactive), the IC50 (TAG; run 1) was 15.5 µM and the IC50 (TAG; run 2) was 15.6 µM.
`COc1cc(C(CCN2CCCC(C)C2)c2c(OC)cc(OC)c3c(-c4ccccc4)cc(=O)oc23)cc(OC)c1OC` (configuration not stated) was tested, and the IC50 cytotoxicity (DAPI nuclear signal decrease) (DAPI; mean of runs) was > 25 µM (inactive), the IC50 cytotoxicity (DAPI nuclear signal decrease) (DAPI; run 1) was greater than 25 µM and the IC50 cytotoxicity (DAPI nuclear signal decrease) (DAPI; run 2) was greater than 25 µM. The IC50 (TAG; mean of runs) was 14.1 µM, the IC50 (TAG; run 1) was 14.8 µM and the IC50 (TAG; run 2) was 13.5 µM.
With `CCCCCCCCn1c(N2CCN(c3cccc(Cl)c3)CC2)nc2c1c(=O)[nH]c(=O)n2C` the IC50 cytotoxicity (DAPI nuclear signal decrease) (DAPI; mean of runs) was > 25 µM (inactive), the IC50 cytotoxicity (DAPI nuclear signal decrease) (DAPI; run 1) was greater than 25 µM and the IC50 cytotoxicity (DAPI nuclear signal decrease) (DAPI; run 2) was greater than 25 µM. The IC50 (TAG; mean of runs) was > 25 µM (inactive), the IC50 (TAG; run 1) was greater than 25 µM and the IC50 (TAG; run 2) was greater than 25 µM.
Work on `C=CCC[C@H](Cc1ccc(F)cc1)C(=O)OC[C@@H](NC(=O)[C@@H](CC=C)CC(=O)N(CCO)Cc1ccccc1)C(C)(C)C` yielded an IC50 cytotoxicity (DAPI nuclear signal decrease) (DAPI; run 1) greater than 25 µM, an IC50 cytotoxicity (DAPI nuclear signal decrease) (DAPI; run 2) greater than 25 µM and an IC50 (TAG; mean of runs) of 2.94 µM. It also gave an IC50 (TAG; run 1) of 2.57 µM and an IC50 (TAG; run 2) of 3.32 µM.
`CCC[C@@H](CN[C@@H](CNC)[C@H](C)CC)NCC1CCC(C(C)(C)C)CC1` (some centres not stated) was tested, and the IC50 cytotoxicity (DAPI nuclear signal decrease) (DAPI; run 1) was greater than 25 µM, the IC50 cytotoxicity (DAPI nuclear signal decrease) (DAPI; run 2) was 24 µM and the IC50 (TAG; mean of runs) was > 25 µM (inactive). The IC50 (TAG; run 1) was greater than 25 µM and the IC50 (TAG; run 2) was greater than 25 µM.
